Holding throughout (experiment): NCI tumour cell line growth inhibition, 48 h
The test system of assay [1] is TK-10 renal.
Assay [2] has as its system MDA-MB-231 breast.
Assay [3] concerns OVCAR-4 ovarian.
In assay [4] the test system is A498 renal.
Assay [5] has as its system PC-3 prostate.
Assay [6] has as its system SNB-19 CNS.
Assay [7] deals with A549 NSCLC.
The test system of assay [8] is SNB-75 CNS.
Assay [9] concerns SF-295 CNS.
In assay [10] the test system is UO-31 renal.

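Assay format: 96-well plates, 48-hour exposure. GI50 is the concentration that inhibits growth by half. TGI: total growth inhibition.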

In the case of `N#Cc1cnc(Nc2cc(NC[C@H]3CNCCO3)c(C(F)(F)F)cn2)cn1`, the GI50 in assay [1] was 3.66 µM; in assay [2] it was 13.1 µM; in assay [3], 10.5 µM; in [4], 0.462 µM; in assay [5] it was 21.1 µM; in assay [6], 9.67 µM. Further, the GI50 in [7] is 20.6 µM; in assay [8], 11.5 µM; in assay [9] it was 0.525 µM; in assay [10], 5.49 µM. The TGI in assay [1] was 36 µM; in assay [2] it was 47 µM; in assay [3], 82.7 µM; in assay [4], 18 µM; in [5] it was 87.5 µM; in assay [6], more than 100 µM. Besides, the TGI in [7] is more than 100 µM; in assay [8] it was 28.1 µM; in [9], more than 100 µM; in assay [10], 69.2 µM.

For the molecule `CC(=O)[C@H]1CCC/C=C/[C@@H]2C[C@H](O)C[C@H]2[C@H](O)/C=C/C(=O)O1`, the GI50 in assay [1] was 0.398 µM; in assay [2], 0.487 µM; in assay [3] it was 0.434 µM; in assay [4], 0.118 µM; in assay [5] it was 0.678 µM; in [6], 1.64 µM. The GI50 is 1.17 µM in [7], 0.237 µM in [8], 4.33 µM in [9] and 0.296 µM in assay [10]. Moreover, the TGI in assay [1] is 3.17 µM; in assay [2], 2.39 µM; in assay [3] it was more than 22.2 µM; in [4], 1.37 µM; in assay [5] it was more than 100 µM; in assay [6], more than 100 µM. The TGI in [7], in [8], in assay [9] and in assay [10] was more than 100 µM throughout.

Regarding `CCCCCC/C=C\CCCCCCCCCC1=C(CN2CCN(C)CC2)C(=O)C=C(OC)C1=O`, the TGI in assay [1] stood at 9.4 µM; in assay [2], 25.9 µM; in assay [3] it was 3.8 µM; in [4] it was 32.6 µM; in assay [5], 10.5 µM; in assay [6] it was 24.1 µM. Also, the TGI is 28.6 µM in assay [7], 16.6 µM in assay [8], 25.3 µM in assay [9] and 9.2 µM in [10].

As to `Cc1cc(C)c(-c2c(N)cc(Br)cc2Br)c(N)c1`, the GI50 is 7.17 µM in assay [1]; 4.85 µM in [2]; 8.43 µM in assay [3]; 2.35 µM in assay [4]; 6.42 µM in assay [5]; 6.68 µM in [6]. In addition, the GI50 in [7] is 5.62 µM; in [8], 2.48 µM; in assay [9], 3.16 µM; in assay [10], 5.4 µM. The TGI in assay [1] came out at 20.5 µM; in assay [2], 19 µM; in assay [3], 22.3 µM; in assay [4] it was 14.4 µM; in [5], 26.5 µM; in assay [6], 26.4 µM. The TGI in [7] stood at 19.6 µM; in assay [8], 10.1 µM; in assay [9] it was 14.8 µM; in [10], 20 µM.

Turning to `C=CCC(N[C@H](CO)c1ccccc1)c1cn(Cc2ccccc2Cl)c(=O)n(Cc2ccccc2Cl)c1=O` (stereo not given in full), the GI50 is 46.6 µM in assay [1]; 3.74 µM in [2]; 26.6 µM in [3]; 11 µM in assay [4]; 4.03 µM in assay [5]; 35.7 µM in assay [6]. In addition, the GI50 in assay [7] was 15.3 µM; in [8] it was 16.6 µM; in assay [9] it was 8.13 µM; in assay [10], 6.89 µM. In addition, the TGI in assay [1] was more than 100 µM; in [2] it was 21.5 µM; in assay [3] it was more than 100 µM; in [4] it was 39.1 µM; in assay [5] it was 26.7 µM; in assay [6] it was more than 100 µM. The TGI was more than 100 µM in [7], 64.8 µM in assay [8], 48 µM in assay [9] and more than 100 µM in assay [10].

As to `CN1CCN(Cc2ccc(NC(=O)c3cncc(C#Cc4cnc(N)c5cccnc45)c3)cc2C(F)(F)F)CC1`, the GI50 in assay [1] is 1.33 µM; in assay [2], 0.137 µM; in assay [3], 0.149 µM; in assay [4], 0.112 µM; in assay [5], 0.665 µM; in [6], 2.05 µM. Moreover, the GI50 in assay [7] was 1.35 µM; in assay [8], 0.469 µM; in assay [9], 2.07 µM; in assay [10] it was 1.1 µM. Besides, the TGI in assay [1] is more than 50 µM; in assay [2], 0.975 µM; in assay [3], more than 50 µM; in assay [4] it was 0.723 µM; in [5], more than 50 µM; in assay [6] it was more than 50 µM. The TGI in assay [7] is more than 50 µM; in assay [8] it was more than 12 µM; in assay [9], more than 50 µM; in assay [10], 2.78 µM.

Consider `CO[C@H]1CC(O[C@@H]2/C(C)=C/C[C@@H]3C[C@@H](C[C@]4(CC[C@H](C)[C@@H](C5CCCCC5)O4)O3)OC(=O)[C@@H]3C=C(C)/C(=N/O)[C@H]4OC/C(=C\C=C\[C@@H]2C)[C@]43O)O[C@@H](C)C1O` (stereo not given in full), for which the GI50 in assay [1] was 1.13 µM; in assay [2] it was 0.768 µM; in assay [3] it was 1.02 µM; in [4], 0.802 µM; in assay [5], 0.704 µM; in assay [6] it was 1.66 µM. In addition, the GI50 in assay [7] was 0.935 µM; in assay [8] it was 0.867 µM; in assay [9], 0.888 µM; in assay [10], 0.769 µM. Further, the TGI came out at 2.71 µM in assay [1]; 1.59 µM in assay [2]; 2.65 µM in [3]; 1.95 µM in assay [4]; 1.84 µM in assay [5]; 9.01 µM in assay [6]. In addition, the TGI in assay [7] was 2.66 µM; in assay [8], 2.57 µM; in [9], 1.87 µM; in assay [10] it was 1.98 µM.

(Values after PubChem BioAssay (NCI).)
